# In patent US20190209581A1, “DOSAGE REGIMEN FOR TREATMENT OF SOLID TUMORS” (Eli Lilly and Company, priority 2016, published 2019):
# Assays:
# [1] = Atropisomer equilibrium in solution by 1H NMR and LC-MS; assay type: physicochemical; conditions: ambient temperature, after 24 hours
# Method: In aqueous solutions, 8-9% of atropisomer 2 (minor atropisomer) is detected by ^1H NMR and LC-MS in equilibrium with atropisomer 1 (major atropisomer) at ambient temperature after 24 hours. In organic solvents, at ambient temperature after 24 hours, approximately 1-2% of atropisomer 2 is detected by ^1H NMR and LC-MS in equilibrium with atropisomer 1. Although detectable by ^1H NMR and LC-MS analysis, atropisomer 2 is not isolable.
# [2] = system: human glioblastoma (EL 2056); assay: Tumor growth inhibition, patient-derived tumor model EL2056; assay type: in vivo; conditions: EL2056 in mice, oral 8 mg/kg, (Mon, Wed, Fri)x5; p <0.0001
# Method: To evaluate in vivo efficacy and effect of 4,4,4-Trifluoro-N-[(1S)-2-[[(7S)-5-(2-hydroxyethyl)-6-oxo-7H-pyrido[2,3-d][3]benzazepin-7-yl]amino]-1-methyl-2-oxo-ethyl]butanamide on inhibition of Notch processing pharmacodynamics (PD), several cell lines- and patient-derived xenograft models are used. A2780 is a human ovarian cell line (Sigma-Aldrich, No. 93112519); SW480 is a human colorectal cell line (ATCC No. CCL-228); HCT 116 is a human colorectal cell line (ATCC No. CCL-247); U-87 MG is a human glioblastoma cell line (ATCC No. HTB-14); A375 is a human malignant melanoma cell line (ATCC No. CRL-1619); K-562 is a human chronic myelogenous leukemia (CML) cell line characterized by the presence of a fusion transcript comprised of the Bcr and Abl1 genes (ATCC No. CCL-243); Jurkat; HEL 92.1.7 is a human erythroleukemia cell line (ATCC No. TIB-180). […] Tumor growth and body weight are monitored over time to evaluate efficacy and signs of toxicity. Bidimensional measurements of tumors are performed twice a week and tumor volumes are calculated based on the following formula: (Tumor Volume)=[(L)×(W2)×(Π/6)] where L is mid-axis length and W is mid-axis width. […] The log volume data are analyzed with a two-way repeated measures analysis of variance by time and treatment using the MIXED™ procedures in SAS™ software (version 8.2). […]
smiles,measurement,setting,value
"C[C@H](NC(=O)CCC(F)(F)F)C(=O)N[C@@H]1C(=O)N(CCO)c2ncccc2-c2ccccc21 [Compound 1, 4,4,4-trifluoro-N-[(1S)-2-[[(7S)-5-(2-hydroxyethyl)-6-oxo-7H-pyrido[2,3-d][3]benzazepin-7-yl]amino]-1-methyl-2-oxo-ethyl]butanamide]",atropisomer 2 (minor atropisomer) in equilibrium with atropisomer 1,[1]; aqueous solutions,8-9%
same,atropisomer 2 (minor atropisomer) in equilibrium with atropisomer 1,[1]; organic solvents,1-2%
same,% TGI,[2],59.05 (<0.0001) %
